Drawing on patent US5639780A, “N-benzyl indol-3-yl butanoic acid derivatives as cyclooxygenase inhibitors” (priority 1995, dated 1997), this text covers IC50 and ED30 for 8 molecules.

Where a name gives a salt, the structure may show the parent alone. Read-outs that look alike come from different tables or passages of the source. Some results are limits rather than exact numbers.

Experiment [1] addresses T1, cyclooxygenase-2 (human osteosarcoma 143 cells) (Homo sapiens, UniProt P35354).
T1 construct: human osteosarcoma 143 cells (which specifically express cyclooxygenase-2); endogenous in cells; host or cells: human osteosarcoma 143 cells
T1 sequence (P35354 18-604): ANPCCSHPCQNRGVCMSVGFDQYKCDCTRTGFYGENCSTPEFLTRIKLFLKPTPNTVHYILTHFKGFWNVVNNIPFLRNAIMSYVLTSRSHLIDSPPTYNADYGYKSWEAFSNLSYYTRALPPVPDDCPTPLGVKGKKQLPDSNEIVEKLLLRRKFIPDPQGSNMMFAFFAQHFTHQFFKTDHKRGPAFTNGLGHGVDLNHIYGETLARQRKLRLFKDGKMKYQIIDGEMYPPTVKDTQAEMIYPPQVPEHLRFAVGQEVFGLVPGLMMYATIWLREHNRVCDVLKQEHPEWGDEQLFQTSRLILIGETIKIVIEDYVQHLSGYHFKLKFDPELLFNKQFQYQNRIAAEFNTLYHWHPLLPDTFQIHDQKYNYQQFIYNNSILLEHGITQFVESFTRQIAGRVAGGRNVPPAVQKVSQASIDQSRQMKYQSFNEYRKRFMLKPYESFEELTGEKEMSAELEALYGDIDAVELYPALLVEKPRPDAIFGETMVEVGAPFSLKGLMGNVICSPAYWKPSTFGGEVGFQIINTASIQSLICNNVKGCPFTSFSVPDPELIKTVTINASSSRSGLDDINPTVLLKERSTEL
The experiment is described as follows: Inhibition of cyclooxygenase-2: PGE2 production in human osteosarcoma 143 cells, whole cell assay. In kind it is cell-based.

In a further experiment the test system is rat paw edema. The experiment is described as follows: Rat Paw Edema Assay (carrageenan), edema inhibition. Format: in vivo, Male Sprague-Dawley rats. As to conditions: po 1 hr before carrageenan, paw volume at 3 hr. The method, then: Rat Paw Edema Assay-Protocol
Male Sprague-Dawley rats (150-200 g) are fasted overnight and are given po either vehicle (1% methocel or 5% Tween 80) or a test compound. One hr later, a line is drawn using a permanent marker at the level above the ankle in one hind paw to define the area of the paw to be monitored. The paw volume (V0) is measured using a plethysmometer (Ugo-Basile, Italy) based on the principle of water displacement. The animals are then injected subplantarly with […] of 1% carrageenan solution in saline (FMC Corp, Maine) into the paw using an insulin syringe with a 25-gauge needle (i.e., […] carrageenan per paw). Three hr later, the paw volume (V3) is measured and the increases in paw volume (V3 -V0) are calculated. The animals are sacrificed by CO2 asphyxiation and the absence or presence of stomach lesions scored. Data is compared with the vehicle-control values and percent inhibition calculated. All treatment groups are coded to eliminate observer bias.

Experiment [2] has as its target T2, cyclooxygenase-1 (human U-937 cells) (Homo sapiens, UniProt P23219).
T2 construct: human U-937 cells (which specifically express cyclooxygenase-1); endogenous in cells; host or cells: human U-937 cells
The experiment is described as follows: Inhibition of cyclooxygenase-1: PGE2 production in human U-937 cells, whole cell assay. The conditions noted are these: PGE2 synthesis in response to arachidonic acid, read-out: Cox-1 IC50. Format: cell-based.

The mark [3] stands for this setting: human osteosarcoma 143 cells, whole cell, PGE2 synthesis in response to arachidonic acid, read-out: Cox-2 IC50.

T2 sequence (P23219 24-599): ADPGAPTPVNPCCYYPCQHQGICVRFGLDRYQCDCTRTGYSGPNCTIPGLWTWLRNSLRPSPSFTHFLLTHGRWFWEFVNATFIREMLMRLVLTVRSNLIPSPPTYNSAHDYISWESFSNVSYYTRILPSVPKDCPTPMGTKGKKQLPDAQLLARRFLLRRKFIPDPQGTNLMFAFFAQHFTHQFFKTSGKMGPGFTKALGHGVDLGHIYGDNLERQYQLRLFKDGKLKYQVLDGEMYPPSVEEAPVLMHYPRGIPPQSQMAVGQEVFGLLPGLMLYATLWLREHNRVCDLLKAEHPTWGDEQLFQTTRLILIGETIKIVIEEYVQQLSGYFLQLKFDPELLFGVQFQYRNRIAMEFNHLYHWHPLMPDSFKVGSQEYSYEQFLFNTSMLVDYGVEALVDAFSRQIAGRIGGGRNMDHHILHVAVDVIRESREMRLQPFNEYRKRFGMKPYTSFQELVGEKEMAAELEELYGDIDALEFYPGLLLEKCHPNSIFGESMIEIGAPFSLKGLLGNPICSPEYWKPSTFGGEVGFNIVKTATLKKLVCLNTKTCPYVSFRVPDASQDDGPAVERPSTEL

`Cc1c(CC(C)CC(=O)O)c2cc(Cl)ccc2n1Cc1ccc(Br)cc1` (racemic) [Example 34, 4-[1-(4-Bromobenzyl)-5-chloro-2-methyl-1 H-indol-3-yl]-3-methyl-butanoic acid]: the concentration for half-maximal inhibition (IC50) was 5 nM in experiment [1] (setting [3]) and over 10 µM in experiment [2]. In the experiment on rat paw edema, this molecule registered an ED30 of 0.51 mg/kg.

`COc1ccc2c(c1)c(CC1(CC(=O)O)CC1)c(C)n2Cc1ccc(Br)cc1` [Example 2, [4-(1-(4-Bromobenzyl) -5-methoxy-2-methyl-1 H-indol-3-yl) -3-(ethane-1,2-diyl)]butanoic acid, sodium salt]: the IC50 in experiment [1] was 16 nM; in experiment [2], over 100 µM. The same molecule returned an ED30 in the experiment with rat paw edema of 0.54 mg/kg.

As for `COc1ccc2c(c1)c(CCCC(=O)O)c(C)n2Cc1ccc(Br)cc1` [Example 4, 4-(1-(4-Bromobenzyl)-5-methoxy-2-methyl-1H-indol-3-yl)butanoic acid], the IC50 was 6 nM in experiment [1] (setting [3]) and over 10 µM in experiment [2]. This molecule also returned an ED30 in the experiment with rat paw edema of 1.2 mg/kg.

In the case of `COc1ccc2c(c1)c(C[C@@H](C)CC(=O)O)c(C)n2Cc1ccc(Br)cc1` [Example 8, (3R) 4-(1-(4-Bromobenzyl)-5-methoxy-2-methyl-1H-indol-3-yl)-3-methylbutanoic ac id], the ED30 in the experiment with rat paw edema is 0.6 mg/kg. Moreover, the IC50 in experiment [2] is over 10 µM.

Take `Cc1c(CCCC(=O)O)c2cc(Br)ccc2n1Cc1ccc(Br)cc1` [Example 24, 4-[5-Bromo-1-(4-bromobenzyl)-2-methyl-1H-indol-3-yl]butanoic acid]: the IC50 in experiment [1] (setting [3]) is 6 nM; in experiment [2] it was over 50 µM. Also, the ED30 in the experiment with rat paw edema was about 3 mg/kg.

As to `COc1ccc2c(c1)c(CC1(CC(=O)O)CC1)c(C)n2Cc1ccc(Cl)cc1` [Example 25, 4-[1-(4-Chlorobenzyl)-5-methoxy-2-methyl-1H-indol-3-yl]-3-(ethane-1,2-diyl)butanoic acid], the results for the half-inhibitory concentration (IC50) in experiment [1] (setting [3]) and in experiment [2] were 9 nM and over 25 µM, respectively. The molecule also gave an ED30 with rat paw edema of over 3 mg/kg.

In the experiment on rat paw edema, `COc1ccc2c(c1)c(CC(=O)O)c(C)n2C(=O)c1ccc(Cl)cc1` [Indomethacin, reference compound] showed an ED30 of 0.9 mg/kg.

`COc1ccc2c(c1)c(C(C)C(=O)O)c(C)n2Cc1ccc(Cl)cc1` (stereo not shown) [MK-555, a-(1-p-chlorobenzyl-2-methyl-5-methoxy-3-indolyl)propionic acid, reference compound] came in with an ED30 in the experiment with rat paw edema of 3 mg/kg.

The term IC50 denotes the concentration needed to halve the response being measured.
